Legend:
[1] = molecular target: RSK2 (Homo sapiens (Human), UniProt P51812); assay: Kinase selectivity assay (CEREP HTRF panel); format: biochemical
[2] = molecular target: CHK1 (Homo sapiens (Human), UniProt O14757); assay: Kinase selectivity assay (CEREP HTRF panel); format: biochemical
[3] = molecular target: p38alpha kinase (Homo sapiens (Human), UniProt Q16539); assay: Kinase selectivity assay (CEREP HTRF panel); format: biochemical
[4] = molecular target: Lyn kinase (Homo sapiens (Human), UniProt P07948); assay: Kinase selectivity assay (CEREP HTRF panel); format: biochemical
[5] = molecular target: CSK (Homo sapiens (Human), UniProt P41240); assay: Kinase selectivity assay (CEREP HTRF panel); format: biochemical
[6] = molecular target: FLT3 (Homo sapiens (Human), UniProt P36888); assay: Kinase selectivity assay (CEREP HTRF panel); format: biochemical
Method: (§1) The assays were performed using standard HTRF assay methods as documented by CEREP against the human orthologues of Ab1 kinase, Akt1/PKBa, AMPKa, BMX kinase (Etk), Brk, CaMK2a, CaMK4, CDC2/CDK1 (cycB), CHK1, CHK2, c-Met kinase, CSK, EphB4 kinase, ERK1, ERK2 (P42mapk), FGFR2 kinase, FGFR4 kinase, FLT-1 kinase (VEGFR1), FLT-3 kinase, Fyn kinase, IGF1R kinase, IRK (InsR), JNK 2, KDR kinase (VEGFR2), Lck kinase, Lyn kinase, MAPKAPK2, MEK1/MAP2K1, p38a kinase, p38d kinase, p38 g kinase, PDGFRb kinase, PDK1, PKA, PKCa, PKCb1, PKCb2, PKCg, Ret kinase, ROCK2, RSK2, Src kinase, Syk, and TRKA (Table 3).

[7] = molecular target: p38delta kinase (Homo sapiens (Human), UniProt O15264); assay: Kinase selectivity assay (CEREP HTRF panel); format: biochemical
[8] = molecular target: MAPKAPK2 (Homo sapiens (Human), UniProt P49137); assay: Kinase selectivity assay (CEREP HTRF panel); format: biochemical
[9] = molecular target: CaMK4 (Homo sapiens (Human), UniProt Q16566); assay: Kinase selectivity assay (CEREP HTRF panel); format: biochemical
[10] = molecular target: ERK2 (P42mapk) (Homo sapiens (Human), UniProt P28482); assay: Kinase selectivity assay (CEREP HTRF panel); format: biochemical; conditions: read-out: % Inhibition @ 10 uM, ERK (P42mapk)
[11] = molecular target: p38gamma kinase (Homo sapiens (Human), UniProt P53778); assay: Kinase selectivity assay (CEREP HTRF panel); format: biochemical
[12] = molecular target: KDR kinase (VEGFR2) (Homo sapiens (Human), UniProt P35968); assay: Kinase selectivity assay (CEREP HTRF panel); format: biochemical
Method: as §1

[13] = molecular target: FGFR4 kinase (Homo sapiens (Human), UniProt P22455); assay: Kinase selectivity assay (CEREP HTRF panel); format: biochemical
[14] = molecular target: IGF1R kinase (Homo sapiens (Human), UniProt P08069); assay: Kinase selectivity assay (CEREP HTRF panel); format: biochemical
[15] = molecular target: CaMK2alpha (Homo sapiens (Human), UniProt Q9UQM7); assay: Kinase selectivity assay (CEREP HTRF panel); format: biochemical
[16] = molecular target: PKCbeta 1 (Homo sapiens (Human), UniProt P05771); assay: Kinase selectivity assay (CEREP HTRF panel); format: biochemical
[17] = molecular target: Ret kinase (Homo sapiens (Human), UniProt P07949); assay: Kinase selectivity assay (CEREP HTRF panel); format: biochemical
[18] = molecular target: TRKA (Homo sapiens (Human), UniProt P04629); assay: Kinase selectivity assay (CEREP HTRF panel); format: biochemical
[19] = molecular target: PKCbeta 2 (Homo sapiens (Human), UniProt P05771); assay: Kinase selectivity assay (CEREP HTRF panel); format: biochemical
[20] = molecular target: PKCalpha (Homo sapiens (Human), UniProt P17252); assay: Kinase selectivity assay (CEREP HTRF panel); format: biochemical
[21] = molecular target: ROCK2 (Homo sapiens (Human), UniProt O75116); assay: Kinase selectivity assay (CEREP HTRF panel); format: biochemical
[22] = molecular target: Brk (Homo sapiens (Human), UniProt Q13882); assay: Kinase selectivity assay (CEREP HTRF panel); format: biochemical
[23] = molecular target: PDK1 (Homo sapiens (Human), UniProt O15530); assay: Kinase selectivity assay (CEREP HTRF panel); format: biochemical
[24] = molecular target: Lck (Homo sapiens (Human), UniProt P06239); assay: Kinase selectivity assay (CEREP HTRF panel); format: biochemical
[25] = molecular target: Akt1/PKBalpha (Homo sapiens (Human), UniProt P31749); assay: Kinase selectivity assay (CEREP HTRF panel); format: biochemical
[26] = molecular target: FLT-1 kinase (VEGFR1) (Homo sapiens (Human), UniProt P17948); assay: Kinase selectivity assay (CEREP HTRF panel); format: biochemical
[27] = molecular target: ERK1 (Homo sapiens (Human), UniProt P27361); assay: Kinase selectivity assay (CEREP HTRF panel); format: biochemical
[28] = molecular target: PDGFRbeta kinase (Homo sapiens (Human), UniProt P09619); assay: Kinase selectivity assay (CEREP HTRF panel); format: biochemical
[29] = molecular target: MEK1/MAP2K1 (Homo sapiens (Human), UniProt Q02750); assay: Kinase selectivity assay (CEREP HTRF panel); format: biochemical
[30] = molecular target: Abl (Homo sapiens (Human), UniProt P00519); assay: Kinase selectivity assay (CEREP HTRF panel); format: biochemical
[31] = molecular target: PKCgamma (Homo sapiens (Human), UniProt P05129); assay: Kinase selectivity assay (CEREP HTRF panel); format: biochemical
[32] = molecular target: Src kinase (Homo sapiens (Human), UniProt P12931); assay: Kinase selectivity assay (CEREP HTRF panel); format: biochemical
[33] = molecular target: IRK (InsR) (Homo sapiens (Human), UniProt P06213); assay: Kinase selectivity assay (CEREP HTRF panel); format: biochemical
[34] = molecular target: EphB4 kinase (Homo sapiens (Human), UniProt P54760); assay: Kinase selectivity assay (CEREP HTRF panel); format: biochemical
[35] = molecular target: c-Met kinase (Homo sapiens (Human), UniProt P08581); assay: Kinase selectivity assay (CEREP HTRF panel); format: biochemical
[36] = molecular target: JNK 2 (Homo sapiens (Human), UniProt P45984); assay: Kinase selectivity assay (CEREP HTRF panel); format: biochemical
[37] = molecular target: CHK2 (Homo sapiens (Human), UniProt O96017); assay: Kinase selectivity assay (CEREP HTRF panel); format: biochemical
[38] = molecular target: BMX kinase (Etk) (Homo sapiens (Human), UniProt P51813); assay: Kinase selectivity assay (CEREP HTRF panel); format: biochemical
[39] = molecular target: Fyn kinase (Homo sapiens (Human), UniProt P06241); assay: Kinase selectivity assay (CEREP HTRF panel); format: biochemical
[40] = molecular target: PKA (Homo sapiens (Human), UniProt P17612); assay: Kinase selectivity assay (CEREP HTRF panel); format: biochemical
[41] = system: HUV-EC-C cells; assay: In vitro angiogenesis assay (tube formation); format: cell-based; conditions: 4 hr
Method: Activity against these RTKs can result in antiangiogenic activity which is associated with slowed tumor growth and/or tumor regression. To measure the antiangiogenic effects of compounds of the invention, selected examples were tested in an angiogenesis assay as described below.
HUV-EC-C cells were obtained from the American Type Culture Collection (ATCC, CRL-1730), and were used at early passage for the assay. The in vitro Angiogenesis Assay Kit (Chemicon) was used according to the manufacturer's recommendation. An ice-cold mixture of ECMatrix was transferred into a precooled 96-well plate. After the matrix solution had solidified (>1 hr incubation at 37° C.), 8,000 cells were mixed with the appropriate inhibitor concentration (in 100 microliters EGM-2) and plated into each well. The clinical antiangiogenic, Sutent was used as a positive control in comparison to a compound of the invention, A13. After incubation at 37° C. for 4 hr, tube formation was inspected. Two methods, pattern recognition and branch point counting, were used to quantify the progression of angiogenesis and expressed as a percentage of the control tube count (FIGS. 1 and 2).

[42] = molecular target: CDC2/CDK1 (cycB) (Homo sapiens (Human), UniProt P06493); assay: Kinase selectivity assay (CEREP HTRF panel); format: biochemical
[43] = molecular target: PLK3 (Homo sapiens (Human), UniProt Q9H4B4); assay: PLK3 inhibition assay (Z-Lyte); format: biochemical
Method: PLK3 inhibition was determined using the Z-Lyte assay kit from Invitrogen (cat #PV3802). The assay was performed using the recommended manufacturer's instructions with 100 μM ATP and 21 nM PLK3 (Invitrogen cat #PV3812). The % inhibition values were determined according to the manufacturer's directions and IC50 values were obtained using a non-linear 4 point logistic curve fit (XLfit4, IDBS).

[44] = molecular target: PLK2 (Homo sapiens (Human), UniProt Q9NYY3); assay: PLK2 inhibition assay (Z-Lyte); format: biochemical
Method: PLK2 inhibition was determined using the Z-Lyte assay kit from Invitrogen (cat #PV3802). The assay was performed using the recommended manufacturer's instructions with 60 μM ATP and 133 nM PLK2 (Invitrogen cat #PV4204). The % inhibition values were determined according to the manufacturer's directions and IC50 values were obtained using a non-linear 4 point logistic curve fit (XLfit4, IDBS)

p38gamma kinase, sequence (P53778 whole entry): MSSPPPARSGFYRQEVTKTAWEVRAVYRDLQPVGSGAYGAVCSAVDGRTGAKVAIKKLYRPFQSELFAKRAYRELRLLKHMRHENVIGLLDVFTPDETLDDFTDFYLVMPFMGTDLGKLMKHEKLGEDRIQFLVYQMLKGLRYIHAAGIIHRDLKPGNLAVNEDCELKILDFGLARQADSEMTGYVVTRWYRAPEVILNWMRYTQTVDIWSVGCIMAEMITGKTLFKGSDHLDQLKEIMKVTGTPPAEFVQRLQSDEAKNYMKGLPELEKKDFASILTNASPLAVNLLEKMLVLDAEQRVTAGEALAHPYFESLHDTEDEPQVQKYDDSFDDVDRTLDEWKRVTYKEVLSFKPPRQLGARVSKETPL
Abl, sequence (P00519 whole entry): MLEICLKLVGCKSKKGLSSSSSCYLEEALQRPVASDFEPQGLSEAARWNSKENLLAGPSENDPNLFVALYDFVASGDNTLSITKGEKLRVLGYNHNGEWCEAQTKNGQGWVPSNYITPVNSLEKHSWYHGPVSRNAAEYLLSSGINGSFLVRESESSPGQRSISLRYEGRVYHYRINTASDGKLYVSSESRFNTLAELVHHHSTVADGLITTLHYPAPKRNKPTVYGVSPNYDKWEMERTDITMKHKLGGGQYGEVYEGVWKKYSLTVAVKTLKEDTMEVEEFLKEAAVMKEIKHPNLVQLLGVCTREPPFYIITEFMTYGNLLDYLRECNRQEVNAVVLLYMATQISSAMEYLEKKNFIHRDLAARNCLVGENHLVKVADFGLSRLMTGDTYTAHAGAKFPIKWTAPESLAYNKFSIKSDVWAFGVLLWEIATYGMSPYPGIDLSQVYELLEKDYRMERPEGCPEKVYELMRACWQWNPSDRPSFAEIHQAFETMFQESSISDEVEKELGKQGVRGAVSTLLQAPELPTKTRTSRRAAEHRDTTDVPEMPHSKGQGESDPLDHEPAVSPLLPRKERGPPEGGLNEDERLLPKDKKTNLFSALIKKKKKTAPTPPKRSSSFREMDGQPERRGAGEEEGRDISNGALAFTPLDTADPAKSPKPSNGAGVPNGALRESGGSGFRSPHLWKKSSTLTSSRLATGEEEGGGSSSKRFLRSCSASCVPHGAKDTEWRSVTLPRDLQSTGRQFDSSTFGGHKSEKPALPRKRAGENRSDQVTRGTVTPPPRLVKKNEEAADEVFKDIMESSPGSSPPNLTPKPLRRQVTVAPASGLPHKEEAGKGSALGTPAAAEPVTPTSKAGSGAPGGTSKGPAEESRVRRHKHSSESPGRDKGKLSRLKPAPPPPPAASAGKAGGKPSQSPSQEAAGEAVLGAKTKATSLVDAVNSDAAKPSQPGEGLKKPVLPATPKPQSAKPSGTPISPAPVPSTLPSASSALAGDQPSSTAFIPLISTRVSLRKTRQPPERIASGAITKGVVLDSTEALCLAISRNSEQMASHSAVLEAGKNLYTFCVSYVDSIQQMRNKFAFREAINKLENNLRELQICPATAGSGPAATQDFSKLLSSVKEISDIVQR
FLT3, sequence (P36888 27-993): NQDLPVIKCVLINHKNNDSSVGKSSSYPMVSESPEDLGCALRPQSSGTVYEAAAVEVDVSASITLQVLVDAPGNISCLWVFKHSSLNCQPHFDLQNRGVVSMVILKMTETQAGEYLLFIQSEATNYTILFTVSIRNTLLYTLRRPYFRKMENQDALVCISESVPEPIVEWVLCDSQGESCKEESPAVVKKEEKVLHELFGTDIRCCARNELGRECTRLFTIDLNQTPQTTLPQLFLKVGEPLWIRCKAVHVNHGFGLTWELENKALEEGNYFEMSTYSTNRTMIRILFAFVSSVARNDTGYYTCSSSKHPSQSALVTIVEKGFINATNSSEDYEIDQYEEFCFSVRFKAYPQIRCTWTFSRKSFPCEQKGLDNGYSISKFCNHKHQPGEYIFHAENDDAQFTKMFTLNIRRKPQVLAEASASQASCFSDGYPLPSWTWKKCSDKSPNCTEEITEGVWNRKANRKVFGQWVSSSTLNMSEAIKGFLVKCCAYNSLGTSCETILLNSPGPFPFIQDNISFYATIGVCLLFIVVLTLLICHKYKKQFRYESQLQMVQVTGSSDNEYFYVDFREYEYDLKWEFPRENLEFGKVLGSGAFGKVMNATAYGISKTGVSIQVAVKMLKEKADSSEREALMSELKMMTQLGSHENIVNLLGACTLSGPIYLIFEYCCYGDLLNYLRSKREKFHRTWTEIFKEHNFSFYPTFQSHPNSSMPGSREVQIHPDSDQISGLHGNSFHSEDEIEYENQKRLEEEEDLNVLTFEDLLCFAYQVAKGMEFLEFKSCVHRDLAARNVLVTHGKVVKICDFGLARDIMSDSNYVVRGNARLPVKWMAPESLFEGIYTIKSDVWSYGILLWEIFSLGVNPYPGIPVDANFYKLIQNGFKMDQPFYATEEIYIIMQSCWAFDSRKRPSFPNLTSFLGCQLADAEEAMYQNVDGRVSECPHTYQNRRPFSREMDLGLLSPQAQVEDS
Ret kinase, sequence (P07949 29-1114): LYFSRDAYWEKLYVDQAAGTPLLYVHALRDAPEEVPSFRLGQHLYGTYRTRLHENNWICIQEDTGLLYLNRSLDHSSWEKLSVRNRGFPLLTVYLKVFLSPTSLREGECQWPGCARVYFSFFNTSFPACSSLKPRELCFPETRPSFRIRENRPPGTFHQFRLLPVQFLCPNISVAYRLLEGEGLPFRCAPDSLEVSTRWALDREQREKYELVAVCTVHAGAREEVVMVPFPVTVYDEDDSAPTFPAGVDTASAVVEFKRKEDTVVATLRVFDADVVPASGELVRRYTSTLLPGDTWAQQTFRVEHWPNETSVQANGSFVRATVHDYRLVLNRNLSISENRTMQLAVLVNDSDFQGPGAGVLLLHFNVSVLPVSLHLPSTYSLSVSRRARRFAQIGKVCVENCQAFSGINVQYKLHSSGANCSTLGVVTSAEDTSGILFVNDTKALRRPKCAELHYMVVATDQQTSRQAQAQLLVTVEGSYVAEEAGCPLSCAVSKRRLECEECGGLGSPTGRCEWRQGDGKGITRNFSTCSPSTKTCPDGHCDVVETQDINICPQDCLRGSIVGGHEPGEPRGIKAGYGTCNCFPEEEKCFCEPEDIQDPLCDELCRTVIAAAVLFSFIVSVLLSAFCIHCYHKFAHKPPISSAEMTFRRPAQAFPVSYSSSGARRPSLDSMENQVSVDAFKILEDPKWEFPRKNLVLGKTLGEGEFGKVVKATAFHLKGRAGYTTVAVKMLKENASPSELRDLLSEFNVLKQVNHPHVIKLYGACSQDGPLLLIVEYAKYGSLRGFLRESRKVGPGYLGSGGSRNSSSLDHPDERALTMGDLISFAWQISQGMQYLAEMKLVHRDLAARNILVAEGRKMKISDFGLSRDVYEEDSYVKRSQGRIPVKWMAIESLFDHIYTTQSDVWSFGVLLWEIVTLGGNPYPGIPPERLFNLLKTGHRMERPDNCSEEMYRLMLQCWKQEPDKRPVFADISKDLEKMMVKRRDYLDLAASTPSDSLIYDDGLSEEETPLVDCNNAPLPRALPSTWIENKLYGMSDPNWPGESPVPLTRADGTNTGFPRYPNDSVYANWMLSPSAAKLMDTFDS
ROCK2, sequence (O75116 whole entry): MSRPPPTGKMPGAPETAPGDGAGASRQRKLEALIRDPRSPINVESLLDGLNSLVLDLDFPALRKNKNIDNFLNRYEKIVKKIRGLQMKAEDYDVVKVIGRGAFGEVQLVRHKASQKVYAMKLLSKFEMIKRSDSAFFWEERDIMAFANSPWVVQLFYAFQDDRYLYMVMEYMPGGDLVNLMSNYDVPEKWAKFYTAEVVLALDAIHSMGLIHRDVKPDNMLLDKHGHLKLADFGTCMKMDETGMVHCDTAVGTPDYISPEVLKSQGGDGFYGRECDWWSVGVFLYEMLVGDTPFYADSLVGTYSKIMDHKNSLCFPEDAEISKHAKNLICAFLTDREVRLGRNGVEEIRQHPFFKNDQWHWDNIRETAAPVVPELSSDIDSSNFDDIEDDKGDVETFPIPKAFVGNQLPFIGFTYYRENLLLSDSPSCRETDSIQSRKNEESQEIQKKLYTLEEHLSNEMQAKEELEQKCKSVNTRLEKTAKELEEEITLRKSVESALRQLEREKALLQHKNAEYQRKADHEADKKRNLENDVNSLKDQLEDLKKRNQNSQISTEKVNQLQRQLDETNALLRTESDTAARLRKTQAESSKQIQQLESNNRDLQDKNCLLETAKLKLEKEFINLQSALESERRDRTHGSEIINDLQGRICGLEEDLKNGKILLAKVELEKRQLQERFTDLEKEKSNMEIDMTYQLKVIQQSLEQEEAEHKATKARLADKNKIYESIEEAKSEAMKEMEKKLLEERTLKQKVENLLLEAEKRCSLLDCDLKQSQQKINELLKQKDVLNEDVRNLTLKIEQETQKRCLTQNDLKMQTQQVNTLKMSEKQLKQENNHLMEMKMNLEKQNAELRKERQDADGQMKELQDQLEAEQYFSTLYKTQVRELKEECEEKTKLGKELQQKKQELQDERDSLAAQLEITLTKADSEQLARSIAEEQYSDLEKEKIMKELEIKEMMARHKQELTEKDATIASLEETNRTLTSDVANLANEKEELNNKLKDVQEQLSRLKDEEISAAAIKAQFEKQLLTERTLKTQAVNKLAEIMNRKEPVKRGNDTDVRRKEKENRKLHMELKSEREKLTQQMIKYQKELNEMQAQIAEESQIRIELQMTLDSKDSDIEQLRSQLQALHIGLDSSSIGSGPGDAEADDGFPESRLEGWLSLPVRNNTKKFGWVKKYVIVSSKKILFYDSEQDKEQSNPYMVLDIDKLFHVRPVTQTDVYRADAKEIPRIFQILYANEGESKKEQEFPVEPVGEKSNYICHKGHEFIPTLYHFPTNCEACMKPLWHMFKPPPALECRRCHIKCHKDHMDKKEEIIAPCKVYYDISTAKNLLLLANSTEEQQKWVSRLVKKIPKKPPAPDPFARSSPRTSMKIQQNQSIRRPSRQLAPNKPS

## O=C1Nc2ccccc2[C@]12C[C@H]2c1ccc2cn[nH]c2c1 (racemic) [Example A2, (1R*,2S*)-2-(1H-indazol-6-yl)spiro[cyclopropane-1,3′-indolin]-2′-one]
[1]
  inhibition at 10 µM: 17%
[2]
  inhibition at 10 µM: -4%
[3]
  inhibition at 10 µM: 6%
[4]
  inhibition at 10 µM: 26%
[5]
  inhibition at 10 µM: 9%
[6]
  inhibition at 10 µM: 62%
[7]
  inhibition at 10 µM: -10%
[8]
  inhibition at 10 µM: -4%
[9]
  inhibition at 10 µM: 7%
[10]
  inhibition at 10 µM: 9%
[11]
  inhibition at 10 µM: 4%
[12]
  inhibition at 10 µM: 14%
[13]
  inhibition at 10 µM: 0%
[14]
  inhibition at 10 µM: 20%
[15]
  inhibition at 10 µM: 41%
[16]
  inhibition at 10 µM: 1%
[17]
  inhibition at 10 µM: 14%
[18]
  inhibition at 10 µM: 54%
[19]
  inhibition at 10 µM: 4%
[20]
  inhibition at 10 µM: -2%
[21]
  inhibition at 10 µM: 39%
[22]
  inhibition at 10 µM: 1%
[23]
  inhibition at 10 µM: 4%
[24]
  inhibition at 10 µM: 17%
[25]
  inhibition at 10 µM: -2%
[26]
  inhibition at 10 µM: 1%
[27]
  inhibition at 10 µM: 4%
[28]
  inhibition at 10 µM: 4%
[29]
  inhibition at 10 µM: 4%
[30]
  inhibition at 10 µM: 3%
[31]
  inhibition at 10 µM: 7%
[32]
  inhibition at 10 µM: -10%
[33]
  inhibition at 10 µM: 4%
[34]
  inhibition at 10 µM: 11%
[35]
  inhibition at 10 µM: 15%
[36]
  inhibition at 10 µM: -2%
[37]
  inhibition at 10 µM: -10%
[38]
  inhibition at 10 µM: -3%
[39]
  inhibition at 10 µM: 7%
[40]
  inhibition at 10 µM: 0%

## O=C1Nc2ccccc2[C@]12C[C@H]2c1ccc2c(/C=C/c3ccncc3)n[nH]c2c1 (relative stereo) [Example A22, 1R*,2S*)-(E)-2-(3-(2-(pyridin-4-yl)vinyl)-1H-indazol-6-yl)spiro-[cyclo-propane-1,3′-indolin]-2′-one]
[1]
  inhibition at 10 µM: 48%
[2]
  inhibition at 10 µM: 37%
[3]
  inhibition at 10 µM: 32%
[4]
  inhibition at 10 µM: 99%
[5]
  inhibition at 10 µM: 99%
[6]
  inhibition at 10 µM: 100%
[7]
  inhibition at 10 µM: -22%
[8]
  inhibition at 10 µM: 4%
[9]
  inhibition at 10 µM: -8%
[10]
  inhibition at 10 µM: 11%
[11]
  inhibition at 10 µM: -15%
[12]
  inhibition at 10 µM: 98%
[13]
  inhibition at 10 µM: 56%
[14]
  inhibition at 10 µM: 22%
[16]
  inhibition at 10 µM: 0%
[17]
  inhibition at 10 µM: 99%
[18]
  inhibition at 10 µM: 100%
[19]
  inhibition at 10 µM: 11%
[20]
  inhibition at 10 µM: 7%
[21]
  inhibition at 10 µM: 88%
[22]
  inhibition at 10 µM: 41%
[23]
  inhibition at 10 µM: 69%
[24]
  inhibition at 10 µM: 97%
[25]
  inhibition at 10 µM: -1%
[27]
  inhibition at 10 µM: 8%
[28]
  inhibition at 10 µM: 88%
[29]
  inhibition at 10 µM: 12%
[30]
  inhibition at 10 µM: 97%
[31]
  inhibition at 10 µM: 8%
[32]
  inhibition at 10 µM: 26%
[33]
  inhibition at 10 µM: 21%
[41]
  anti-angiogenic effect (tube formation): anti-agiogenic effects at submicromolar concentrations
[34]
  inhibition at 10 µM: 99%
[42]
  inhibition at 10 µM: 93%
[35]
  inhibition at 10 µM: 97%
[36]
  inhibition at 10 µM: 32%
[37]
  inhibition at 10 µM: 4%
[43]
  inhibition at 10 µM: ≤ 50%
[44]
  inhibition at 10 µM: ≤ 50%
[38]
  inhibition at 10 µM: 71%
[39]
  inhibition at 10 µM: 87%
[40]
  inhibition at 10 µM: -6%

— patent publication US10358436B2, “Kinase inhibitors and method of treating cancer” (University Health Network, priority 2010, dated 2019)
